Results from article PMC8272914 (Journal of medicinal chemistry, 2019).

Experiments:
hD3R = hD3R (Homo sapiens, UniProt P35462); assay: Radioligand competition binding vs [3H]-; settings: for Ki: D3R Ki ± SEM, HEK293 cells stably expressing hD3R
hD2R = hD2R (Homo sapiens, UniProt P14416); assay: Radioligand competition binding vs [3H]-; settings: vs. [3H]-(R)-(+)-7-OH-DPAT; for Ki: D2R Ki ± SEM, HEK293 cells stably expressing hD2R
D3R = D3R (Homo sapiens, UniProt P35462); settings: cited from earlier work
D3R, sequence (P35462 whole entry): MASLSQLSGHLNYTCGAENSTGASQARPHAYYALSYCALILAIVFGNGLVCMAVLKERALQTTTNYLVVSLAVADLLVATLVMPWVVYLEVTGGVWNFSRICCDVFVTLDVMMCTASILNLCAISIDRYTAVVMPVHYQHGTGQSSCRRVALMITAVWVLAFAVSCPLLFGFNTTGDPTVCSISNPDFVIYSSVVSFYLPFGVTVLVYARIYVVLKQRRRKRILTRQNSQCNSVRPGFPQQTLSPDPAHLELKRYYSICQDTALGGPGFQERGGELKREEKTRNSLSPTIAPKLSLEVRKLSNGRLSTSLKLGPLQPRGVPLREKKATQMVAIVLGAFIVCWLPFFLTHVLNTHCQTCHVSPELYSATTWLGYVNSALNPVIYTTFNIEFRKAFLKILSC

[1] = drug self-administration and drug discrimination, rats; cited from earlier work
[2] = Table 1, vs. [3H]-(R)-(+)-7-OH-DPAT
[3] = Table 2, vs. [3H]-(R)-(+)-7-OH-DPAT

hD2R, sequence (P14416 whole entry): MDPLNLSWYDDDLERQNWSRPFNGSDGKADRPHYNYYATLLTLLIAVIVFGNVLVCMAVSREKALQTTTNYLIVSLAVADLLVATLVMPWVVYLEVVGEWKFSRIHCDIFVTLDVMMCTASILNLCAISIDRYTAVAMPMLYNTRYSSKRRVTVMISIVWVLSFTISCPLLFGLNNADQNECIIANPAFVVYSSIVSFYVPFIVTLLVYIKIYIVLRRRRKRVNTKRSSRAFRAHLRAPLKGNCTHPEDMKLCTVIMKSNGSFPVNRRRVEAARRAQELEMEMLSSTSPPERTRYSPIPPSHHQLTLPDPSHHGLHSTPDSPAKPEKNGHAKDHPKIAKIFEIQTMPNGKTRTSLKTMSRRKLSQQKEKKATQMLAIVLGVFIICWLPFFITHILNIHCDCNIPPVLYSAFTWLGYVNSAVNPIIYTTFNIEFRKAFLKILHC
hD3R, sequence (P35462 whole entry): as the sequence (P35462 whole entry) above

## C[C@H]1CO[C@@H](c2ccc(N)nc2)CN1CCCCOc1ccc2c(c1)NC(=O)CC2 [Compound 26, 7-(4-((2S,5S)-2-(6-aminopyridin-3-yl)-5-methylmorpholino)butoxy)-3,4-dihydroquinolin-2(1H)-one]
hD3R; 27 vs 25, 26 vs 24, vs. [3H]-(R)-(+)-7-OH-DPAT
  higher D3R affinity compared to its (2R,5S) diastereoisomer: 775 fold

## CCCN(CCC)c1ccc(C2CN(CCC)[C@@H](C)CO2)cn1 (stereo partly drawn) [Compound 20, 5-((5S)-5-methyl-4-propylmorpholin-2-yl)-N,N-dipropylpyridin-2-amine]
hD3R; Table 2, ratio of Ki values vs. [3H]-(R)-(+)-7-OH-DPAT
  D4R/D3R: >4.74

## O=C(NCCCCNC1COc2ccc(O)cc2C1=O)c1cc2ccccc2[nH]1 (stereo not shown) [Compound 19a, N-(4-((6-hydroxy-4-oxochroman-3-yl)amino)butyl)-1H-indole-2-carboxamide]
hD3R; [2]
  Ki: 354 ± 45.1 nM
hD3R; vs. [3H]-(R)-(+)-7-OH-DPAT
  reduced affinity (loss of affinity) at both D2R and D3R relative to parent 1: 100–1,000 fold

## C[C@H]1CO[C@H](c2ccc(N)nc2)CN1CC1CC1CNC(=O)c1cc2ccccc2[nH]1 (stereo partly drawn) [Compound 39a, cis-N-((2-(((2R,5S)-2-(6-aminopyridin-3-yl)-5-methylmorpholino)methyl)cyclopropyl)methyl)-1H-indole-2-carboxamide]
hD3R; [3]
  Ki: 26200 nM

## CCCN[C@H]1CCc2nc(N)sc2C1 [Pramipexole, reference compound]
hD3R; [2]
  Ki: 1.69 nM

## O=C(NCCCCNC1COc2ccc(O)cc2C1=O)c1cc2ccccc2[nH]1 (stereo not shown) [Compound 19b, N-(4-((6-hydroxy-4-oxochroman-3-yl)amino)butyl)-1H-indole-2-carboxamide]
hD2R; Table 1
  Ki: 1430 nM
hD3R; [2]
  Ki: 1770 nM
hD3R; vs. [3H]-(R)-(+)-7-OH-DPAT
  reduced affinity (loss of affinity) at both D2R and D3R relative to parent 1: 100–1,000 fold

## C[C@H]1CO[C@@H](c2ccc(N)nc2)CN1CC1CC1CNC(=O)c1cc2ccccc2[nH]1 (stereo partly drawn) [Compound 37b, trans-N-((2-(((2S,5S)-2-(6-aminopyridin-3-yl)-5-methylmorpholino)methyl)cyclopropyl)methyl)-1H-indole-2-carboxamide]
hD2R; Table 2
  Ki: 707 ± 19.8 nM
hD3R; [3]
  Ki: 404 ± 34 nM

## C[C@H]1CO[C@@H](c2ccc(N)nc2)CN1CC1CC1CNC(=O)c1cc2ccccc2[nH]1 (stereo partly drawn) [Compound 38a, cis-N-((2-(((2S,5S)-2-(6-aminopyridin-3-yl)-5-methylmorpholino)methyl)cyclopropyl)methyl)-1H-indole-2-carboxamide]
hD2R; Table 2
  Ki: 1070 nM
hD3R; [3]
  Ki: 2150 nM

## CCCN1CCO[C@@H]2c3cc(O)ccc3OC[C@H]21 [Compound 1, (4aR,10bR)-4-propyl-3,4,4a,10b-tetrahydro-2H,5H-chromeno[4,3-b][1,4]oxazin-9-ol]
D3R
  D3R over D2R selectivity: ~ 10 fold

## CCCN1CC(c2ccc(N)nc2)OC[C@@H]1C (stereo partly shown) [Compound 2]
[1]
  abuse potential: lack of abuse potential

## CCCN(CCC)C1CCc2ccc(O)cc2C1 (stereo not shown) [Compound 7-OH-DPAT, 7-Hydroxy-N,N-dipropyl-2-aminotetralin]
D3R
  D3R over D2R selectivity: ~ 10 fold

## C[C@H]1CO[C@@H](c2ccc(N)nc2)CN1CC1CC1CNC(=O)c1cc2ccccc2[nH]1 (stereo partly drawn) [Compound 37a, trans-N-((2-(((2S,5S)-2-(6-aminopyridin-3-yl)-5-methylmorpholino)methyl)cyclopropyl)methyl)-1H-indole-2-carboxamide]
hD2R
  selectivity for D2R over D3R: ~ 5 fold
hD3R; [3]
  Ki: 1190 nM

## C[C@H]1CO[C@@H](c2ccc(N)nc2)CN1CC1CC1CNC(=O)c1cc2ccccc2[nH]1 (stereo partly drawn) [Compound 38b, cis-N-((2-(((2S,5S)-2-(6-aminopyridin-3-yl)-5-methylmorpholino)methyl)cyclopropyl)methyl)-1H-indole-2-carboxamide]
hD2R; Table 2
  Ki: 120 ± 16.6 nM
hD3R; [3]
  Ki: 276 ± 30 nM

## C[C@H]1CO[C@H](c2ccc(N)nc2)CN1CC1CC1CNC(=O)c1cc2ccccc2[nH]1 (stereo partly drawn) [Compound 39b, cis-N-((2-(((2R,5S)-2-(6-aminopyridin-3-yl)-5-methylmorpholino)methyl)cyclopropyl)methyl)-1H-indole-2-carboxamide]
hD2R; Table 2
  Ki: 7730 nM
hD3R; [3]
  Ki: 32900 nM

## Oc1ccc2c(c1)[C@H]1OCCN[C@@H]1CO2 [Compound 15, (4aR,10bR)-3,4,4a,10b-tetrahydro-2H,5H-chromeno[4,3-b][1,4]oxazin-9-ol]
hD3R; vs. [3H]-(R)-(+)-7-OH-DPAT
  reduced affinity (loss of affinity) at both D2R and D3R relative to parent 1: > 200 fold
  selectivity for D3R over D2R: 10 fold

## CCc1cc(Cl)c(OC)c(N2CCN(CCCCOc3ccc4c(c3)NC(=O)CC4)CC2)c1 [Compound 57, 7-(4-(4-(3-chloro-5-ethyl-2-methoxyphenyl)piperazin-1-yl)butoxy)-3,4-dihydroquinolin-2(1H)-one]
hD2R
  selectivity for D2R over D3R: 22 fold
